Test results taken from patent US12344597B2, “Alkoxy-substituted pyridinyl derivatives as LPA1 receptor antagonists and their use in the treatment of fibrosis” (IDORSIA PHARMACEUTICALS LTD, priority 2018, dated 2025).
pIC50: −log10 of the molar value.

Biological target: human LPA1 receptor (Homo sapiens (Human), UniProt Q92633)
Assay: Beta-arrestin recruitment assay to determine IC50 values for human LPAR1
Format: cell-based
Settings: antagonist mode, Tango EDG2-bla U2OS cells, LPA 18:1 500 nM final
Summary of the method: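 Antagonist IC50 = concentration giving 50% inhibition of maximal LPA response. Read-out is beta-lactamase reporter activity after arrestin-protease recruitment in U2OS cells bearing LPA1-TEV-Gal4-VP16 construct; cells pre-incubated 20 h, 37 °C, 5% CO2.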

human LPA1 receptor, sequence (Q92633 whole entry): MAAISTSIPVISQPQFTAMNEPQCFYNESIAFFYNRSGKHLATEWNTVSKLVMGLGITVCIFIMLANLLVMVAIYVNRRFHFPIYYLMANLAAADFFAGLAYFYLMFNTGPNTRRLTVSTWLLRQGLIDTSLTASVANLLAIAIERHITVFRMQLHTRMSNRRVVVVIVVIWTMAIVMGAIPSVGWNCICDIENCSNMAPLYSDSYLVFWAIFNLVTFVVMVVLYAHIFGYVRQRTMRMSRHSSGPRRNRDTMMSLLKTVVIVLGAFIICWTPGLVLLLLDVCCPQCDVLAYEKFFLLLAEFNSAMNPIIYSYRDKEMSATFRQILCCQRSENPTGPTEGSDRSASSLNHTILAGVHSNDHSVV

Compound | pIC50
Cc1ccc(NC(=O)C2(c3ccccc3C(C)C)CN(c3ncc(C(=O)O)cn3)C2)c(OC(F)F)n1 [Ex 18-5, 2-(3-((2-(difluoromethoxy)-6-methylpyridin-3-yl)carbamoyl)-3-(2-isopropylphenyl)azetidin-1-yl)pyrimidine-5-carboxylic acid] | 7.96
Cc1ccc(NC(=O)C2(c3ccccc3C(C)C)CN(S(=O)(=O)NC(C)C)C2)c(OC(F)F)n1 [Ex 15-12, N-(2-(difluoromethoxy)-6-methylpyridin-3-yl)-3-(2-isopropylphenyl)-1-(N-isopropylsulfamoyl)azetidine-3-carboxamide] | 7.60
COCCNCC(=O)N1CCC(C(=O)Nc2ccc(C)nc2OC(F)F)(c2ccccc2C(C)C)CC1 [Ex 12-48, N-(2-(difluoromethoxy)-6-methylpyridin-3-yl)-4-(2-isopropylphenyl)-1-((2-methoxyethyl)glycyl)piperidine-4-carboxamide] | 8.05
1-((3-((3-(difluoromethoxy)-5-methylpyridin-2-yl)carbamoyl)-3-(2-isopropylphenyl)azetidine-1-carbonyl)oxy)cyclopropane-1-carboxylic acid [Ex 83-3] | 7.12
COC(=O)C(C)(C)CC(=O)N1CC(C(=O)Nc2ccc(OC)nc2OC)(c2ccccc2C(C)C)C1 [Ex 12-85, methyl 4-(3-((2,6-dimethoxypyridin-3-yl)carbamoyl)-3-(2-isopropylphenyl)azetidin-1-yl)-2,2-dimethyl-4-oxobutanoate] | 6.85
COc1nc(C)ccc1NC(=O)C1(c2ccccc2C(C)C)CN(S(N)(=O)=O)C1 [Ex 15-16, 3-(2-isopropylphenyl)-N-(2-methoxy-6-methylpyridin-3-yl)-1-sulfamoylazetidine-3-carboxamide] | 7.30
Cc1ccc(NC(=O)C2(c3ccccc3C(C)C)CN(C(=O)c3cc(O)no3)C2)c(OC(F)F)n1 [Ex 12-16, N-(2-(difluoromethoxy)-6-methylpyridin-3-yl)-1-(3-hydroxyisoxazole-5-carbonyl)-3-(2-isopropylphenyl)azetidine-3-carboxamide] | 8.05
Cc1ccc(NC(=O)C2(c3ccccc3C(C)C)CN(c3noc(O)n3)C2)c(OC(F)F)n1 [Ex 21, N-(2-(difluoromethoxy)-6-methylpyridin-3-yl)-1-(5-hydroxy-1,2,4-oxadiazol-3-yl)-3-(2-isopropylphenyl)azetidine-3-carboxamide] | 7.92
Cc1ccc(NC(=O)C2(c3ncccc3C(C)C)CN(c3nc(C)ncc3F)C2)c(OC(F)F)n1 [Ex 64, N-(2-(difluoromethoxy)-6-methylpyridin-3-yl)-1-(5-fluoro-2-methylpyrimidin-4-yl)-3-(3-isopropylpyridin-2-yl)azetidine-3-carboxamide] | 7.82
Cc1ccc(NC(=O)C2(c3ccccc3C(C)C)CN(C(=O)CCC(C)(C)C(=O)O)C2)c(OC(F)F)n1 [Ex 12-103, 5-(3-((2-(difluoromethoxy)-6-methylpyridin-3-yl)carbamoyl)-3-(2-isopropylphenyl)azetidin-1-yl)-2,2-dimethyl-5-oxopentanoic acid] | 7.72
COC(=O)CS(=O)(=O)N1CCC(C(=O)Nc2ccc(C)nc2OC(F)F)(c2ccccc2C(C)C)CC1 [Ex 13-2, methyl 2-((4-((2-(difluoromethoxy)-6-methylpyridin-3-yl)carbamoyl)-4-(2-isopropylphenyl)piperidin-1-yl)sulfonyl)acetate] | 8.15
COCCNCC(=O)N1CC(C(=O)Nc2ccc(C)nc2OC(F)F)(c2ccccc2C(C)C)C1 [Ex 12-54, N-(2-(difluoromethoxy)-6-methylpyridin-3-yl)-3-(2-isopropylphenyl)-1-((2-methoxyethyl)glycyl)azetidine-3-carboxamide] | 8.00
Cc1ccc(NC(=O)C2(c3ncccc3C(C)C)CN(C(=O)CCC(=O)O)C2)c(OC(F)F)n1 [Ex 61, 4-(3-((2-(difluoromethoxy)-6-methylpyridin-3-yl)carbamoyl)-3-(3-isopropylpyridin-2-yl)azetidin-1-yl)-4-oxobutanoic acid] | 7.15
CCCNS(=O)(=O)N1CC(C(=O)Nc2ccc(C)nc2OC(F)F)(c2ccccc2C(C)C)C1 [Ex 15-11, N-(2-(difluoromethoxy)-6-methylpyridin-3-yl)-3-(2-isopropylphenyl)-1-(N-propylsulfamoyl)azetidine-3-carboxamide] | 8.22
COC(=O)C1(COC(=O)N2CC(C(=O)Nc3ccc(C)nc3OC(F)F)(c3ccccc3C(C)C)C2)COC1 [Ex 14-13, (3-(methoxycarbonyl)oxetan-3-yl)methyl 3-((2-(difluoromethoxy)-6-methylpyridin-3-yl)carbamoyl)-3-(2-isopropylphenyl)azetidine-1-carboxylate] | 7.54
CNC[C@H](O)CN1CC(C(=O)Nc2ccc(C)nc2OC(F)F)(c2ccccc2C(C)C)C1 [Ex 11-84, (S)-N-(2-(difluoromethoxy)-6-methylpyridin-3-yl)-1-(2-hydroxy-3-(methylamino)propyl)-3-(2-isopropylphenyl)azetidine-3-carboxamide] | 7.35

Compound | pIC50
Cc1ccc(NC(=O)C2(c3ccccc3C(C)C)CN(C(=O)C[C@@](C)(O)C(=O)O)C2)c(OC(F)F)n1 [Ex 12-116, (R)-4-(3-((2-(difluoromethoxy)-6-methylpyridin-3-yl)carbamoyl)-3-(2-isopropylphenyl)azetidin-1-yl)-2-hydroxy-2-methyl-4-oxobutanoic acid] | 7.20
Cc1ccc(NC(=O)C2(c3ccccc3C(C)C)CN(C(=O)NC3(C(=O)O)CC3)C2)c(OC(F)F)n1 [Ex 17-11, 1-(3-((2-(difluoromethoxy)-6-methylpyridin-3-yl)carbamoyl)-3-(2-isopropylphenyl)azetidine-1-carboxamido)cyclopropane-1-carboxylic acid] | 7.34
Cc1ccc(NC(=O)C2(c3ccccc3C(C)C)CN(Cc3coc(C)n3)C2)c(OC(F)F)n1 [Ex 11-21, N-(2-(difluoromethoxy)-6-methylpyridin-3-yl)-3-(2-isopropylphenyl)-1-((2-methyloxazol-4-yl)methyl)azetidine-3-carboxamide] | 7.22
COc1cc(Br)cnc1NC(=O)C1(c2ccccc2C(C)C)CN(S(N)(=O)=O)C1 [Ex 81-2, N-(5-bromo-3-methoxypyridin-2-yl)-3-(2-isopropylphenyl)-1-sulfamoylazetidine-3-carboxamide] | 7.89
Cc1ccc(NC(=O)C2(c3ccccc3C(C)C)CCN(C(=O)C[C@H](O)C(=O)O)CC2)c(OC(F)F)n1 [Ex 12-37, (S)-4-(4-((2-(difluoromethoxy)-6-methylpyridin-3-yl)carbamoyl)-4-(2-isopropylphenyl)piperidin-1-yl)-2-hydroxy-4-oxobutanoic acid] | 7.66
Cc1ccc(NC(=O)C2(c3c(F)cccc3C(C)C)CN(C(=O)CC(C)(C)C(=O)O)C2)c(OC(F)F)n1 [Ex 39-4, 4-(3-((2-(difluoromethoxy)-6-methylpyridin-3-yl)carbamoyl)-3-(2-fluoro-6-isopropylphenyl)azetidin-1-yl)-2,2-dimethyl-4-oxobutanoic acid] | 8.30
Cc1ccc(NC(=O)C2(c3ccccc3C(C)C)CN(CCC(C)(C)C(=O)NS(C)(=O)=O)C2)c(OC(F)F)n1 [Ex 53, N-(2-(difluoromethoxy)-6-methylpyridin-3-yl)-1-(3,3-dimethyl-4-(methylsulfonamido)-4-oxobutyl)-3-(2-isopropylphenyl)azetidine-3-carboxamide] | 7.77
COC(=O)C(C)(C)CC(=O)N1CC(C(=O)Nc2ncc(Br)cc2OC(F)F)(c2ccccc2C(C)C)C1 [Ex 79-1, Methyl 4-(3-((5-bromo-3-(difluoromethoxy)pyridin-2-yl)carbamoyl)-3-(2-isopropylphenyl)azetidin-1-yl)-2,2-dimethyl-4-oxobutanoate] | 7.19
CCOC(=O)CC1(S(=O)(=O)N2CC(C(=O)Nc3ccc(C)nc3OC(F)F)(c3ccccc3C(C)C)C2)CC1 [Ex 13-13, ethyl 2-(1-((3-((2-(difluoromethoxy)-6-methylpyridin-3-yl)carbamoyl)-3-(2-isopropylphenyl)azetidin-1-yl)sulfonyl)cyclopropyl)acetate] | 5.76
Cc1ccc(NC(=O)C2(c3ccccc3C(C)C)CN(CCC3(O)CC3)C2)c(OC(F)F)n1 [Ex 11-10, N-(2-(difluoromethoxy)-6-methylpyridin-3-yl)-1-(2-(1-hydroxycyclopropyl)ethyl)-3-(2-isopropylphenyl)azetidine-3-carboxamide] | 7.92
Cc1ccc(NC(=O)C2(c3ccccc3C(C)C)CCN(C(=O)CC3(O)COC3)CC2)c(OC(F)F)n1 [Ex 12-14, N-(2-(difluoromethoxy)-6-methylpyridin-3-yl)-1-(2-(3-hydroxyoxetan-3-yl)acetyl)-4-(2-isopropylphenyl)piperidine-4-carboxamide] | 8.15
Cc1ccc(NC(=O)C2(c3ccccc3C(C)C)CN(C[C@@H](O)CN)C2)c(OC(F)F)n1 [Ex 11-83, (S)-1-(3-amino-2-hydroxypropyl)-N-(2-(difluoromethoxy)-6-methylpyridin-3-yl)-3-(2-isopropylphenyl)azetidine-3-carboxamide] | 7.70
COC(=O)C1(CN2CC(C(=O)Nc3ccc(C)nc3OC(F)F)(c3ccccc3C(C)C)C2)CC1 [Ex 11-26, methyl 1-((3-((2-(difluoromethoxy)-6-methylpyridin-3-yl)carbamoyl)-3-(2-isopropylphenyl)azetidin-1-yl)methyl)cyclopropane-1-carboxylate] | 6.40
Cc1ccc(NC(=O)C2(c3ccccc3C(C)C)CN(C(=O)O[C@@H](C)C(=O)O)C2)c(OC(F)F)n1 [Ex 14-4, (S)-2-((3-((2-(difluoromethoxy)-6-methylpyridin-3-yl)carbamoyl)-3-(2-isopropylphenyl)azetidine-1-carbonyl)oxy)propanoic acid] | 7.80
COC(=O)c1ccc(CN2CC(C(=O)Nc3ccc(C)nc3OC(F)F)(c3ccccc3C(C)C)C2)[nH]1 [Ex 11-43, methyl 5-((3-((2-(difluoromethoxy)-6-methylpyridin-3-yl)carbamoyl)-3-(2-isopropylphenyl)azetidin-1-yl)methyl)-1H-pyrrole-2-carboxylate] | 6.51
